Broadly, the IC50 is the midpoint of a concentration-inhibition curve. The low end stands for greater potency, the high end for weaker potency.

Among the data in the Kinase Knowledgebase extract (Sharma et al. 2016) are IC50 values, retold here.

For the assay, the target named is EGFR (human) (UniProt P00533).
EGFR (human), sequence (P00533 whole entry, looked up): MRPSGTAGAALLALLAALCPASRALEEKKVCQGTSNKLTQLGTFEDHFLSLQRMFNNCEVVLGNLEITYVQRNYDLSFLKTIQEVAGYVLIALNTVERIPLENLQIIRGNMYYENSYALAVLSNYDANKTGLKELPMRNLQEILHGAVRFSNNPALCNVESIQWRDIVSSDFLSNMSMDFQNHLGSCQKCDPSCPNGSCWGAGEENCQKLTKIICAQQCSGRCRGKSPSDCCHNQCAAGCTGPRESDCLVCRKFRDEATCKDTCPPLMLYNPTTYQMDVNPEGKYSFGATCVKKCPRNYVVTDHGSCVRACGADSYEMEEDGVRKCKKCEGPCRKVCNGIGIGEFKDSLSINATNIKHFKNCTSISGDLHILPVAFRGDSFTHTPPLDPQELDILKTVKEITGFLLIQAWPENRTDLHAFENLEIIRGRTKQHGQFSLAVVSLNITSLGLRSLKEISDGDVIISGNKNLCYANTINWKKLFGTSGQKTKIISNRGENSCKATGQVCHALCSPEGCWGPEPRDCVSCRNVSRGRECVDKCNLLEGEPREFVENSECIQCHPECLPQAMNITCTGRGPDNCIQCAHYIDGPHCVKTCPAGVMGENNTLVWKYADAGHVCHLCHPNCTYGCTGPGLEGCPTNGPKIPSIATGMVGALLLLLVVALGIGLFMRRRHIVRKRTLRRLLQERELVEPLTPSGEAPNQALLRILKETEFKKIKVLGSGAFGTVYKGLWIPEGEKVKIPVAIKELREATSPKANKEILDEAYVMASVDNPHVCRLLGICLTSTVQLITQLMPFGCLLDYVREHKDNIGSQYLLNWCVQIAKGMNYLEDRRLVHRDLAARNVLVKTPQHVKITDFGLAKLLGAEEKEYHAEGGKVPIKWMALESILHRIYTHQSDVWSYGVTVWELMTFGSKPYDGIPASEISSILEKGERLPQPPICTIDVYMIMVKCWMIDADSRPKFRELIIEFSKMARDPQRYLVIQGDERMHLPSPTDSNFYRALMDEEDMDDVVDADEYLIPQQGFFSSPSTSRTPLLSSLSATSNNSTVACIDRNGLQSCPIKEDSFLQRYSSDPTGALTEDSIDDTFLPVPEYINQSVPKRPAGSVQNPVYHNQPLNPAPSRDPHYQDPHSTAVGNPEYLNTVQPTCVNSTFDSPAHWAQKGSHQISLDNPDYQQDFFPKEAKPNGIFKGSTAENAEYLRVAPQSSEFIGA
Regarding `CN(C)CCOc1ccc(Nc2nccc(-c3sc(-c4ccc(O)cc4)nc3-c3cccc(NC(=O)c4c(F)cccc4F)c3)n2)cc1Cl`, the IC50 was less than 100 nM.

`Cc1nc(-c2cccc(NC(=O)c3c(F)cccc3F)c2)c(-c2ccnc(Nc3cccc(OCCN(C)C)c3)n2)s1` displayed an IC50 of less than 100 nM.

`Nc1nc(-c2cccc(OCc3ccccc3)c2)c(-c2ccnc(Nc3cccc(-c4cnco4)c3)n2)s1` had an IC50 of less than 100 nM.

`CN(C)CCOc1ccc(Nc2nccc(-c3sc(N(C)C)nc3-c3cccc(NC(=O)c4c(F)cccc4F)c3)n2)cc1` came in with a half-maximal inhibitory concentration (IC50) of less than 100 nM.

`COc1ccc(Nc2nccc(-c3sc(N)nc3-c3cccc(NC(=O)c4c(F)cccc4F)c3)n2)cc1N1CCNCC1` showed a half-maximal inhibitory concentration (IC50) of less than 100 nM.

In turn, `COc1ccc(Nc2nccc(-c3sc(N)nc3-c3cccc(NC(=O)c4c(F)cccc4F)c3)n2)cc1N1CCN(C)CC1` gave a concentration for half-maximal inhibition (IC50) of less than 100 nM.

The compound `Cc1nc(-c2cccc(NC(=O)c3cccc(Cl)c3)c2)c(-c2ccnc(Nc3ccc(OCCN(C)C)c(Cl)c3)n2)s1` returned a concentration for half-maximal inhibition (IC50) of less than 100 nM.

With `COc1ccc(Nc2nccc(-c3scnc3-c3cccc(NC(=O)Cc4cccs4)c3)n2)cc1OCCN(C)C`, the half-maximal inhibitory concentration (IC50) was less than 100 nM.

Turning to `CN(C)c1nc(-c2cccc(NC(=O)c3c(F)cccc3F)c2)c(-c2ccnc(Nc3ccc(OCCN4CCCC4)c(Cl)c3)n2)s1`, the IC50 is less than 100 nM.

For the compound `Nc1nc(-c2cccc(NC(=O)c3cc(F)ccc3F)c2)c(-c2ccnc(Nc3cccc(-c4cnco4)c3)n2)s1`, the IC50 was less than 100 nM.

In turn, `O=C(Nc1cccc(-c2nc(NCCCN3CCOCC3)sc2-c2ccnc(Nc3cccc(CN4CCCC4)c3)n2)c1)c1c(F)cccc1F` came in with an IC50 of less than 100 nM.

Regarding `Nc1nc(-c2cccc(OCc3ccccc3)c2)c(-c2ccnc(Nc3ccc4c(c3)CNCC4)n2)s1`, the IC50 was less than 100 nM.

Compound `CN(C)c1nc(-c2cccc(NC(=O)c3c(F)cccc3F)c2)c(-c2ccnc(Nc3ccc(OCCN4CCCC4)nc3)n2)s1` gave a half-inhibitory concentration (IC50) of less than 100 nM.

Take `CN1CCC(c2nc(-c3cccc(NC(=O)c4c(F)cccc4F)c3)c(-c3ccnc(Nc4ccc5c(c4)CN(C)CC5)n3)s2)CC1`: the IC50 was less than 100 nM.

Compound `Cc1nc(-c2cccc(NC(=O)c3c(F)cccc3F)c2)c(-c2ccnc(Nc3ccc(OCCN4CCCC4)c(Cl)c3)n2)s1` displayed an IC50 of less than 100 nM.

Take `CCN(CC)CCOc1cccc(Nc2nccc(-c3scnc3-c3cccc(NC(=O)c4cc(F)ccc4F)c3)n2)c1`: the IC50 was less than 100 nM.

`COc1ccc(Nc2nccc(-c3sc(N)nc3-c3cccc(NC(=O)c4c(F)cccc4F)c3)n2)cc1N(C)C`: the IC50 is less than 100 nM.

For the compound `CCc1nc(-c2cccc(NC(=O)c3c(F)cccc3F)c2)c(-c2ccnc(Nc3ccc(OCCN(C)C)c(Cl)c3)n2)s1`, the IC50 is less than 100 nM.

On to `CN(C)c1nc(-c2cccc(NC(=O)c3c(F)cccc3F)c2)c(-c2ccnc(Nc3ccc(N4CCOCC4)c(Cl)c3)n2)s1`, for which the IC50 is less than 100 nM.

`CN(C)CCCNc1ccc(Nc2nccc(-c3sc(N)nc3-c3cccc(NC(=O)c4cccn4C)c3)n2)cc1F` came in with an IC50 of less than 100 nM.

As for `O=C(Nc1cccc(-c2nc(N3CCCCC3)sc2-c2ccnc(Nc3cccc(CN4CCCC4)c3)n2)c1)c1c(F)cccc1F`, the 50% inhibitory concentration (IC50) was less than 100 nM.

In the case of `COc1cc(Nc2nccc(-c3sc(N)nc3-c3cccc(NC(=O)c4c(F)cccc4F)c3)n2)cc(OC)c1OC`, the half-inhibitory concentration (IC50) was less than 100 nM.

Compound `Nc1nc(-c2cccc(NC(=O)c3c(F)cccc3F)c2)c(-c2ccnc(Nc3ccc4c(c3)OCC(=O)N4)n2)s1` yielded a half-maximal inhibitory concentration (IC50) of less than 100 nM.

In the case of `CN1CCc2ccc(Nc3nccc(-c4sc(N)nc4-c4cccc(NC(=O)c5c(F)cccc5F)c4)n3)cc2C1`, the IC50 was less than 100 nM.

For `CN(C)Cc1cccc(Nc2nccc(-c3scnc3-c3cccc(NC(=O)Cc4cccs4)c3)n2)c1`, the half-maximal inhibitory concentration (IC50) was less than 100 nM.

The compound `CCN(CC)CCOc1cccc(Nc2nccc(-c3sc(N)nc3-c3cccc(NC(=O)c4c(F)cccc4F)c3)n2)c1` came in with a half-maximal inhibitory concentration (IC50) of less than 100 nM.

For the compound `O=C(Nc1cccc(-c2nc(NCCN3CCOCC3)sc2-c2ccnc(Nc3ccc4c(c3)CNCC4)n2)c1)c1c(F)cccc1F`, the half-maximal inhibitory concentration (IC50) was less than 100 nM.

The compound `Cc1nc(-c2cccc(NC(=O)c3c(F)cccc3F)c2)c(-c2ccnc(Nc3ccc(OC4CCNCC4)c(F)c3)n2)s1` registered an IC50 of less than 100 nM.

`CC(C)(C)S(=O)(=O)Cc1nc(-c2cccc(NC(=O)c3c(F)cccc3F)c2)c(-c2ccnc(Nc3ccc(OCCN4CCCC4)c(Cl)c3)n2)s1` gave a half-maximal inhibitory concentration (IC50) of less than 100 nM.

Take `Nc1nc(-c2cccc(NC(=O)c3c(F)cccc3F)c2)c(-c2ccnc(Nc3cccc(CN4CCCC4)c3)n2)s1`: the half-maximal inhibitory concentration (IC50) was less than 100 nM.

Regarding `CN(C)CCOc1ccc(Nc2nccc(-c3sc(N(C)C)nc3-c3cccc(NC(=O)c4c(F)cccc4F)c3)n2)cc1Cl`, the IC50 was less than 100 nM.

In the case of `COc1cccc(C(=O)Nc2cccc(-c3nc(C)sc3-c3ccnc(Nc4ccc5c(c4)CN(C)CC5)n3)c2)c1`, the 50% inhibitory concentration (IC50) is less than 100 nM.

As for `O=C1COc2cc(Nc3nccc(-c4scnc4-c4cccc(NC(=O)c5cc(F)ccc5F)c4)n3)ccc2N1`, the IC50 was less than 100 nM.

`CN(C)CCOc1cccc(Nc2nccc(-c3scnc3-c3cccc(NC(=O)c4c(F)cccc4F)c3)n2)c1` returned a half-inhibitory concentration (IC50) of less than 100 nM.

In the case of `CN(C)CCOc1cccc(Nc2nccc(-c3sc(N)nc3-c3cccc(NC(=O)c4c(F)cccc4F)c3)n2)c1`, the half-maximal inhibitory concentration (IC50) is less than 100 nM.

Take `CCNc1nc(-c2cccc(NC(=O)C3CC3)c2)c(-c2ccnc(Nc3ccc(OCCN4CCCC4)c(Cl)c3)n2)s1`: the IC50 is less than 100 nM.

Compound `CN(C)CCOc1ccc(Nc2nccc(-c3sc(N)nc3-c3cccc(OCc4ccccc4)c3)n2)cc1Cl` showed a half-inhibitory concentration (IC50) of less than 100 nM.

Compound `COc1ccc(Nc2nccc(-c3sc(NC4CC4)nc3-c3cccc(NC(=O)c4c(F)cccc4F)c3)n2)cc1OCCN(C)C` came in with an IC50 of less than 100 nM.

`CCc1nc(-c2cccc(NC(=O)c3c(F)cccc3F)c2)c(-c2ccnc(Nc3cccc(CN4CCCC4)c3)n2)s1` yielded an IC50 of less than 100 nM.

For the compound `CN1CCN(c2nc(-c3cccc(NC(=O)c4c(F)cccc4F)c3)c(-c3ccnc(Nc4cccc(CN5CCCC5)c4)n3)s2)CC1`, the IC50 was less than 100 nM.

`CC(=O)N1CCC(Oc2ccc(Nc3nccc(-c4sc(C)nc4-c4cccc(NC(=O)c5c(F)cccc5F)c4)n3)cc2F)CC1` registered an IC50 of less than 100 nM.

For `Cc1nc(-c2cccc(NC(=O)c3c(F)cccc3F)c2)c(-c2ccnc(Nc3cccc(F)c3)n2)s1`, the concentration for half-maximal inhibition (IC50) is less than 100 nM.

As to `CN(C)CCOc1cccc(Nc2nccc(-c3sc(NCCCN4CCOCC4)nc3-c3cccc(NC(=O)c4c(F)cccc4F)c3)n2)c1`, the IC50 was less than 100 nM.

Consider `CN1CCc2ccc(Nc3nccc(-c4sc(N(C)C)nc4-c4cccc(NC(=O)c5c(F)cccc5F)c4)n3)cc2C1`, for which the IC50 was less than 100 nM.

For the compound `O=C(Nc1cccc(-c2nc(N3CCC3)sc2-c2ccnc(Nc3ccc(OCCN4CCCC4)c(Cl)c3)n2)c1)c1c(F)cccc1F`, the IC50 was less than 100 nM.

`COc1ccc(Nc2nccc(-c3sc(N)nc3-c3cccc(NC(=O)c4c(F)cccc4F)c3)n2)cc1OCCN(C)C` had a half-inhibitory concentration (IC50) of less than 100 nM.

In turn, `CN(C)CCOc1ccc(Nc2nccc(-c3scnc3-c3cccc(NC(=O)c4c(F)cccc4F)c3)n2)cc1Cl` gave an IC50 of less than 100 nM.

`CN1CCc2ccc(Nc3nccc(-c4sc(N5CCCC5)nc4-c4cccc(NC(=O)c5c(F)cccc5F)c4)n3)cc2C1` showed an IC50 of less than 100 nM.

With `CN(C)Cc1cccc(Nc2nccc(-c3scnc3-c3cccc(NC(=O)c4c(F)cccc4F)c3)n2)c1`, the IC50 was less than 100 nM.

In turn, `CC(C)c1nc(-c2cccc(NC(=O)c3c(F)cccc3F)c2)c(-c2ccnc(Nc3cccc(OCCN(C)C)c3)n2)s1` had a half-maximal inhibitory concentration (IC50) of less than 100 nM.
